In assay [1] the target is T1, human NPR1 (Homo sapiens, UniProt P16066).
T1 construct: host or cells: CHO-K1
T1 sequence (P16066 33-1061): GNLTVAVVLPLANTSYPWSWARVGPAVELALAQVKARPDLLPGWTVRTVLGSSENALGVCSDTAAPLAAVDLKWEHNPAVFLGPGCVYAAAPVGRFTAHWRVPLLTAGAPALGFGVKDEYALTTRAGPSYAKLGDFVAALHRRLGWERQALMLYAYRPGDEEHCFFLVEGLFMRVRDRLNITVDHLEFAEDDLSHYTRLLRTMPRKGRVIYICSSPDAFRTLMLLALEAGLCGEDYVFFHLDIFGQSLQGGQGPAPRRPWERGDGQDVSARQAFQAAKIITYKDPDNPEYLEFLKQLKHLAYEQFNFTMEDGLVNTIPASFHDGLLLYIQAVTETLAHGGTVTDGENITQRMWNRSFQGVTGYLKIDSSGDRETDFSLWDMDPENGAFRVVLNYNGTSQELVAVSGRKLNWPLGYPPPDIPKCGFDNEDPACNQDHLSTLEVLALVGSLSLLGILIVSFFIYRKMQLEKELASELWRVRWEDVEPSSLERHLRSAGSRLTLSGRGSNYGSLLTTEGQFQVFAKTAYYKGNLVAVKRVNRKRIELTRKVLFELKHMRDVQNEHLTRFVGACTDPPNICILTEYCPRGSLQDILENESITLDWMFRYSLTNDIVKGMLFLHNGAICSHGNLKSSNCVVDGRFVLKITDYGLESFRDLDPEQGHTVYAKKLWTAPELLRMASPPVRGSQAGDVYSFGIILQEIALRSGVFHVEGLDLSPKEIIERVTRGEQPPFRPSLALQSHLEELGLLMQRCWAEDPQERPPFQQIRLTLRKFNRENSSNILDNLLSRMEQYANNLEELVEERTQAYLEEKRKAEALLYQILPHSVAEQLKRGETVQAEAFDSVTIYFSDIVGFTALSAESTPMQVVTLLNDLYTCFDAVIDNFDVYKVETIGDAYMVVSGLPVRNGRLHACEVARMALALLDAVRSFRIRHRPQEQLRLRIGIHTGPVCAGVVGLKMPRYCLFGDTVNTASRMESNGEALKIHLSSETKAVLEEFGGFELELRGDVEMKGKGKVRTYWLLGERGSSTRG
Put plainly: Cellular cGMP production assay, human NPR1 expressing CHO-K1 cells (CisBio HTRF). The class given is cell-based. Particulars: for AC50: cGMP production, 30 min at 37° C., 12-point dose-response from 30 μM; for Human NPR1 Amax (% of ANP): maximum cGMP production as percentage of the maximum cGMP produced with ANP. The essentials:
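Read-out was HTRF (excitation 317 nm, emission 665 nm), with cGMP quantified as Delta F against a calibrator standard curve. Beforehand, cells were exposed for 30 min at 37 °C to compound (30 μM top, twelve 3-fold steps) in IBMX-containing PBS/BSA buffer, then lysed.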
A general note: Time-resolved FRET reads energy transfer from a long-lived donor to a nearby acceptor.

For assay [2], the target named is monkey NPR1 (Macaca fascicularis, UniProt A0A7N9DBT9). The assay is described as follows: Cellular cGMP production assay, monkey NPR1 expressing CHO-K1 cells (CisBio HTRF). The class given is cell-based. Particulars: for Monkey NPR1 Amax (% of ANP): maximum cGMP production as percentage of the maximum cGMP produced with ANP. The protocol: Cellular cGMP is a major second messenger that mediates cell activities and is synthesized by activated NPR1 triggered by binding of the natural ligand ANP. […] The assay was performed according to manufacturer's instructions with minor deviations. […] All compound stocks were diluted in PBS+0.1% BSA at 2-fold the final assay concentration. After addition of 10 μL/well of assay buffer (PBS+0.1% BSA+1 mM IBMX) and 10 μL/well of the compounds in different concentrations (12-point dose-response with 3-fold dilutions from a top concentration of 30 μM), the plate was incubated for 30 min at 37° C. to allow for cGMP production. In parallel, a standard curve using a calibrator (contained in the kit) was generated. The cells were lysed and a mix of cGMP-d2 and anti-cGMP-cryptate was added and incubated for 1 h at room temperature. The readout was performed using an Envision plate reader (PerkinElmer) with an excitation wavelength of 317 nm and an emission wavelength of 665 nm. cGMP concentration (Delta F [° %]) was calculated according to the following formulae: […]

The mark [3] stands for this setting: cGMP production, monkey NPR1 CHO-K1 cells, 30 min at 37° C., 12-point dose-response from 30 μM, read-out: Monkey NPR1 AC50.

Like-named read-outs stand apart in the source and are kept apart here.

Chain of monkey NPR1 (A0A7N9DBT9 entry or part of it): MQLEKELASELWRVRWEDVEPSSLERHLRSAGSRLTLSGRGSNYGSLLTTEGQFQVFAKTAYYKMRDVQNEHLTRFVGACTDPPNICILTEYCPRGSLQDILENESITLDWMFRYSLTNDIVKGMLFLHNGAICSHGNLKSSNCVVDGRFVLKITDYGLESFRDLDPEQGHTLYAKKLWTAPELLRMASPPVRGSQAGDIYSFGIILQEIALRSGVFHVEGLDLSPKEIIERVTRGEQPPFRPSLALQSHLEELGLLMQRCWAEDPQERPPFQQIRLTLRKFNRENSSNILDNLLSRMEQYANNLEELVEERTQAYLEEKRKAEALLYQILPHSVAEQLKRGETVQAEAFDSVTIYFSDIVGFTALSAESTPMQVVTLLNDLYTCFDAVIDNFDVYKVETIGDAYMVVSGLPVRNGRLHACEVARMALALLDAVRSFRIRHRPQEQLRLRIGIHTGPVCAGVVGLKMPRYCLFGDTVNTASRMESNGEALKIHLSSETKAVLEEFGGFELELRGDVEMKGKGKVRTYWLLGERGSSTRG

Take `CC[C@@H](Nc1nc2c(c(N[C@@H](CN3CCCC3)c3ccccc3)n1)CN(c1ccccc1)CC2)[C@H]1CC[C@H](C(=O)O)CC1` [Compound 131, (1R,4r)-4-((R)-1-((6-phenyl-4-(((R)-1-phenyl-2-(pyrrolidin-1-yl)ethyl)amino)-5,6,7,8-tetrahydropyrido[4,3-d]pyrimidin-2-yl)amino)propyl)cyclohexane-1-carboxylic acid]: in assay [1], half-maximal activity (AC50) was put at 693 nM and the “Human NPR1 Amax (% of ANP)” value is on record as 101.666 % of ANP. In addition, in assay [2] (setting [3]), the AC50 came to 582 nM. Besides, the “Monkey NPR1 Amax (% of ANP)” value in assay [2] (monkey NPR1 CHO-K1 cells) is 109.531 % of ANP.
On the same counts, the results for `CC[C@@H](Nc1nc2c(c(N[C@@H](CN3CCCCC3)c3cnn(C)c3)n1)C[C@H](c1ccccc1)CC2)[C@H]1CC[C@H](C(=O)O)CC1` [Compound 56, (1R,4r)-4-((R)-1-(((R)-4-(((R)-1-(1-methyl-1H-pyrazol-4-yl)-2-(piperidin-1-yl)ethyl)amino)-6-phenyl-5,6,7,8-tetrahydroquinazolin-2-yl)amino)propyl)cyclohexane-1-carboxylic acid] are 198 nM, 102.955 % of ANP, 196 nM and 108.953 % of ANP.
Take `C[C@@H](Nc1nc2c(c(N[C@@H](CN3C4CCCC3CCC4)c3cnn(C)c3)n1)C[C@H](c1ccccc1)CC2)c1ccc(C(=O)O)c(F)c1` [Compound 168, 4-((R)-1-(((R)-4-(((R)-2-((1S,5S)-9-azabicyclo[3.3.1]nonan-9-yl)-1-(1-methyl-1H-pyrazol-4-yl)ethyl)amino)-6-phenyl-5,6,7,8-tetrahydroquinazolin-2-yl)amino)ethyl)-2-fluorobenzoic acid]: the values for the AC50 in assay [1] and in assay [2] were 2230 nM and 1540 nM, respectively. The “Human NPR1 Amax (% of ANP)” value in assay [1] is on record as 96.777 % of ANP. In assay [2] (monkey NPR1 CHO-K1 cells), the “Monkey NPR1 Amax (% of ANP)” value was 93.654 % of ANP.
With `CCC(N(C)c1nc2c(c(N[C@@H](CN3C4CCCC3CCC4)c3cnn(C)c3)n1)C[C@H](c1ccccc1)CC2)C12CC(C(=O)O)(C1)C2` (stereo partly drawn) [Compound 74, 3-(1-(((R)-4-(((R)-2-((1S,5S)-9-azabicyclo[3.3.1]nonan-9-yl)-1-(1-methyl-1H-pyrazol-4-yl)ethyl)amino)-6-phenyl-5,6,7,8-tetrahydroquinazolin-2-yl)(methyl)amino)-1l3-propyl)bicyclo[1.1.1]pentane-1-carboxylic acid], the half-maximal activity concentration (AC50) in assay [1] was 246 nM; in assay [2] it was 167 nM. Moreover, the “Human NPR1 Amax (% of ANP)” value in assay [1] is 102.182 % of ANP. Moreover, the “Monkey NPR1 Amax (% of ANP)” value in assay [2] (monkey NPR1 CHO-K1 cells) is recorded as 117.270 % of ANP.
For `CC[C@@H](N(C)c1nc2c(c(N[C@@H](CN3C4CCCC3CC4)c3scnc3C)n1)C[C@H](c1cccc(F)c1)CC2)C12CC(C(=O)O)(C1)C2` [Compound 113, 3-((1R)-1-(((6R)-4-(((1S)-2-(8-azabicyclo[3.2.1]octan-8-yl)-1-(4-methylthiazol-5-yl)ethyl)amino)-6-(3-fluorophenyl)-5,6,7,8-tetrahydroquinazolin-2-yl)(methyl)amino)propyl)bicyclo[1.1.1]pentane-1-carboxylic acid], in that order: 438 nM, 460 nM, 98.462 % of ANP and 99.894 % of ANP.
Take `CC[C@H]([C@H]1CC[C@H](C(=O)O)CC1)N(C)c1nc2c(c(N[C@@H](CN3CCCCC3)c3cnn(C)c3)n1)C[C@](C)(c1ccccc1)CC2` [Compound 66, (1R,4r)-4-((R)-1-(methyl((R)-6-methyl-4-(((R)-1-(1-methyl-1H-pyrazol-4-yl)-2-(piperidin-1-yl)ethyl)amino)-6-phenyl-5,6,7,8-tetrahydroquinazolin-2-yl)amino)propyl)cyclohexane-1-carboxylic acid]: the results for the half-maximal activity concentration (AC50) in assay [1] and in assay [2] (setting [3]) were 219 nM and 123 nM, respectively. Also, the “Human NPR1 Amax (% of ANP)” value in assay [1] is reported as 96.868 % of ANP. Further, in assay [2] (monkey NPR1 CHO-K1 cells), the “Monkey NPR1 Amax (% of ANP)” value is 98.088 % of ANP.
As for `CC[C@@H](Nc1nc2c(c(N[C@@H](CN3CCCC4(CCOC4)C3)c3cnn(CC)c3)n1)C[C@H](c1ccccc1)CC2)[C@H]1CC[C@H](C(=O)O)CC1` (stereo partly drawn) [Compound 109, (1R,4r)-4-((1R)-1-(((6R)-4-(((1R)-1-(1-ethyl-1H-pyrazol-4-yl)-2-(2-oxa-7-azaspiro[4.5]decan-7-yl)ethyl)amino)-6-phenyl-5,6,7,8-tetrahydroquinazolin-2-yl)amino)propyl)cyclohexane-1-carboxylic acid], the values for the AC50 in assay [1] and in assay [2] (setting [3]) were 412 nM and 190 nM, respectively. Also, the “Human NPR1 Amax (% of ANP)” value in assay [1] is reported as 91.101 % of ANP. Besides, the “Monkey NPR1 Amax (% of ANP)” value in assay [2] (monkey NPR1 CHO-K1 cells) was 115.338 % of ANP.
Take `CC[C@@H](Nc1nc2c(c(N[C@@H](CN3CCCCC3)c3cnc(C)s3)n1)C[C@H](c1ccccc1)CC2)[C@H]1CC[C@H](C(=O)O)CC1` [Compound 119, (1R,4r)-4-((R)-1-(((R)-4-(((S)-1-(2-methylthiazol-5-yl)-2-(piperidin-1-yl)ethyl)amino)-6-phenyl-5,6,7,8-tetrahydroquinazolin-2-yl)amino)propyl)cyclohexane-1-carboxylic acid]: the concentration at half-maximal activity (AC50) came out at 542 nM in assay [1] and 378 nM in assay [2] (setting [3]). In addition, in assay [1], the “Human NPR1 Amax (% of ANP)” value was 89.681 % of ANP. Further, the “Monkey NPR1 Amax (% of ANP)” value in assay [2] (monkey NPR1 CHO-K1 cells) is 90.965 % of ANP.
On the same counts, the results for `CC[C@@H](N(C)c1nc2c(c(N[C@H](CN3CCCCCC3)c3cnn(C)c3)n1)C[C@H](c1cccc(F)c1)CC2)C12CC(C(=O)O)(C1)C2` [Compound 4, 3-((R)-1-(((R)-4-(((S)-2-(azepan-1-yl)-1-(1-methyl-1H-pyrazol-4-yl)ethyl)amino)-6-(3-fluorophenyl)-5,6,7,8-tetrahydroquinazolin-2-yl)(methyl)amino)propyl)bicyclo[1.1.1]pentane-1-carboxylic acid] are 72 nM, 70 nM, 99.041 % of ANP and 101.838 % of ANP.
For `CC[C@@H]([C@H]1CC[C@@](F)(C(=O)O)CC1)N(C)c1nc2c(c(N[C@H](CN3CCC[C@@H](C)C3)c3cnn(C)c3)n1)C[C@@H](c1ccccc1)CC2` [Compound 21, (1S,4r)-1-fluoro-4-((S)-1-(methyl((S)-4-(((S)-1-(1-methyl-1H-pyrazol-4-yl)-2-((R)-3-methylpiperidin-1-yl)ethyl)amino)-6-phenyl-5,6,7,8-tetrahydroquinazolin-2-yl)amino)propyl)cyclohexane-1-carboxylic acid], the AC50 was 111 nM in assay [1] and 93 nM in assay [2] (setting [3]). Further, in assay [1], the “Human NPR1 Amax (% of ANP)” value is listed as 96.122 % of ANP. The “Monkey NPR1 Amax (% of ANP)” value in assay [2] (monkey NPR1 CHO-K1 cells) is 101.974 % of ANP.
Consider `CC[C@@H](Nc1nc2c(c(N[C@@H](CN3C4CCCC3CC4)c3scnc3C)n1)C[C@H](c1cccc(F)c1)CC2)[C@H]1CC[C@H](C(=O)O)CC1` [Compound 26, (1R,4r)-4-((1R)-1-(((6R)-4-(((1S)-2-(8-azabicyclo[3.2.1]octan-8-yl)-1-(4-methylthiazol-5-yl)ethyl)amino)-6-(3-fluorophenyl)-5,6,7,8-tetrahydroquinazolin-2-yl)amino)propyl)cyclohexane-1-carboxylic acid], for which the values for the concentration at half-maximal activity (AC50) in assay [1] and in assay [2] were 131 nM and 91 nM, respectively. Further, the “Human NPR1 Amax (% of ANP)” value in assay [1] is on record as 115.149 % of ANP. The “Monkey NPR1 Amax (% of ANP)” value in assay [2] (monkey NPR1 CHO-K1 cells) is on record as 102.667 % of ANP.

In general, AC50 refers to the concentration giving half of the maximal activity seen.

For the origin of these results see US12129246B1, “Hydroquinazoline derivatives for the treatment of a disease or disorder” (Novartis AG, priority 2023, dated 2024).
